Earlier results, collected in patent publication US7550593B2, “Process for the preparation of finasteride Form I” (Cipla Limited, priority 2003, dated 2009).

Test system: serum DHT concentration
Details: within 24 hours of oral dosing with a 1 mg tablet

CC(C)(C)NC(=O)[C@H]1CC[C@H]2[C@@H]3CC[C@H]4NC(=O)C=C[C@]4(C)[C@H]3CC[C@]12C [Finasteride, 17β-(N-t-butylcarbamoyl)-4-aza-5-alpha-androst-1-ene-3-one]
suppression of serum DHT concentration: 65%
